# In the supplement of paper PMC8960247:
# Where a name gives a salt, the structure may show the parent alone. ± gives the standard error.
# How the values were obtained:
# [1] = test system: 621-102 (TSC2-deficient); assay: relative viability vs DMSO; higher = less cytotoxic; conditions: serum: 10% FBS, 72 h
# [2] = test system: 621-103 (TSC2-rescued); assay: as above; conditions: serum: 10% FBS, 72 h
# [3] = test system: 621-102 (TSC2-deficient); assay: relative viability vs DMSO (fraction); higher = less cytotoxic; conditions: serum: 0.1% FBS, 72 h
# [4] = test system: UMB1949 (TSC2-deficient); assay: as above; conditions: serum: 0.1% FBS, 72 h;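 note: renal angiomyolipoma cell lines screened in 384-well plates, viability normalized per plate to DMSO-treated cells, each plate carrying 50 nM rapamycin and 1 µM staurosporine controls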
Structure (SMILES),relative viability ([1]; 0.0001 µM),relative viability ([1]; 0.001 µM),relative viability ([1]; 0.01 µM),relative viability ([1]; 0.1 µM),relative viability ([1]; 1 µM),relative viability ([1]; 10 µM),relative viability ([2]; 0.0001 µM),relative viability ([2]; 0.001 µM),relative viability ([2]; 0.01 µM),relative viability ([2]; 0.1 µM),relative viability ([2]; 1 µM),relative viability ([2]; 10 µM),relative viability ([3]; 0.0128 nM),relative viability ([3]; 0.064 nM),relative viability ([3]; 0.32 nM),relative viability ([3]; 1.6 nM),relative viability ([3]; 8 nM),relative viability ([3]; 40 nM),relative viability ([3]; 200 nM),relative viability ([3]; 1000 nM),relative viability ([3]; 5000 nM),relative viability ([4]; 0.0128 nM),relative viability ([4]; 0.064 nM),relative viability ([4]; 0.32 nM),relative viability ([4]; 1.6 nM),relative viability ([4]; 8 nM),relative viability ([4]; 40 nM),relative viability ([4]; 200 nM),relative viability ([4]; 1000 nM),relative viability ([4]; 5000 nM)
O=C(/C=C/c1cccc(S(=O)(=O)Nc2ccccc2)c1)NO [Belinostat(PXD101)],109 ± 3.7%,111.1 ± 1.1%,107 ± 1.1%,94.4 ± 1.9%,85.6 ± 1.9%,44.6 ± 0.66%,97.7 ± 1.1%,97 ± 2.6%,97.46 ± 0.88%,92.7 ± 1.6%,77.17 ± 0.11%,9.88 ± 0.36%,1.07,1.04,1.01,1.03,1.18,0.923,0.646,0.271,0.0621,1.11,0.925,1.01,0.986,0.987,0.854,0.277,0.00312,0.001
Nc1ccn([C@@H]2O[C@H](CO)[C@@H](O)C2(F)F)c(=O)n1 [Gemcitabine Hydrochloride],108 ± 11%,93 ± 1.5%,52.67 ± 0.069%,52.6 ± 0.69%,44.7 ± 3.6%,32.9 ± 0.75%,103 ± 1.8%,95.2 ± 9.7%,51.9 ± 0.63%,50 ± 2.1%,41.866 ± 0.0075%,28.5 ± 1.5%,1.07,0.96,0.953,0.0927,0.0285,0.023,0.0148,0.008,0.00219,1.06,1.01,1.02,0.0319,0.014,0.00861,0.007,0.00362,0.00263
CC[C@@]1(O)C(=O)OCc2c1cc1n(c2=O)Cc2cc3c(CN(C)C)c(O)ccc3nc2-1 [Topotecan Hydrochloride],105 ± 5.7%,110 ± 4.5%,103 ± 3.6%,80.067 ± 0.0095%,30.3 ± 2.4%,12.7 ± 0.7%,106 ± 1.4%,110.5 ± 0.33%,102 ± 1.7%,80.31 ± 0.015%,26.9 ± 0.65%,7.57 ± 0.098%,1.03,0.984,1.06,0.956,0.888,0.268,0.0393,0.00545,0.000822,1.08,1.08,1.03,0.883,0.692,0.00466,0.00116,0.000564,0.0011
Nc1nc2[nH]cc(CCc3ccc(C(=O)N[C@@H](CCC(=O)O)C(=O)O)cc3)c2c(=O)[nH]1 [Pemetrexed disodium],107 ± 2.3%,101 ± 4.2%,107 ± 5.4%,93.8 ± 4.3%,94.1 ± 6.1%,81.27 ± 0.71%,102 ± 2.4%,92.3 ± 6.5%,102 ± 1.6%,106 ± 1.4%,104.4 ± 0.47%,88.6 ± 7.4%,1.25,1.15,1.17,1.17,1.09,0.126,0.0307,0.0251,0.0247,1.05,0.979,1.03,0.984,1.02,0.0167,0.00471,0.00243,0.000722
O=c1cc(N2CCOCC2)oc2c(-c3cccc4c3sc3ccccc34)cccc12 [NU7441],61.9 ± 2.2%,57.3 ± 5.1%,78.8 ± 9.5%,78.5 ± 3%,88.7 ± 5.2%,41.2 ± 0.43%,105 ± 2.5%,109 ± 1.9%,111 ± 1.2%,102.6 ± 0.65%,101 ± 2.8%,56.7 ± 1.8%,1.29,0.918,0.935,0.718,0.623,0.724,0.674,0.227,0.00895,1.06,0.893,1.08,0.961,0.89,0.85,0.236,0.00964,0.00523
CCCCc1nc2cc(/C=C/C(=O)NO)ccc2n1CCN(CC)CC [SB939],106 ± 2.5%,116 ± 4.8%,108.59 ± 0.1%,96.3 ± 2%,71.42 ± 0.65%,35.9 ± 0.61%,98.4 ± 1.2%,97.63 ± 0.65%,96.6 ± 2.1%,96.7 ± 1.1%,46.1 ± 2.5%,2.74 ± 0.067%,1.27,0.957,0.868,0.884,0.789,0.608,0.351,0.121,0.00937,1.04,1.11,1.25,1.22,1.03,0.31,0.0114,0.00881,0.00358
NC(=O)Nc1cc(-c2cccc(F)c2)sc1C(=O)N[C@H]1CCCNC1 [AZD7762],102 ± 4.3%,108 ± 1.8%,88.76 ± 0.17%,32.13 ± 0.32%,17.1 ± 0.87%,6.55 ± 0.31%,99 ± 1.1%,98.96 ± 0.94%,98.3 ± 0.4%,83.6 ± 0.97%,22.27 ± 0.029%,3.24 ± 0.41%,0.981,0.92,0.935,0.731,0.244,0.0116,0.00396,0.000482,0.00108,0.976,0.981,1.07,1.08,0.341,0.00441,0.00215,0.000402,0.00128
CN(C)CC[C@H](CSc1ccccc1)Nc1ccc(S(=O)(=O)NC(=O)c2ccc(N3CCN(Cc4ccccc4-c4ccc(Cl)cc4)CC3)cc2)cc1[N+](=O)[O-] [ABT-737],122.1 ± 0.59%,118 ± 1.4%,113 ± 1.9%,107 ± 3.3%,101 ± 3.6%,43.2 ± 2%,101 ± 1.5%,99.05 ± 0.48%,97.82 ± 0.7%,98.61 ± 0.42%,91.97 ± 0.57%,43.5 ± 2.2%,0.888,0.796,0.677,0.564,0.491,0.175,0.00664,0.00508,0.00348,1.02,0.975,0.941,0.965,0.92,0.869,0.803,0.197,0.00643
Cn1c(Nc2ccc(C(F)(F)F)cc2)nc2cc(Oc3ccnc(-c4ncc(C(F)(F)F)[nH]4)c3)ccc21 [RAF265],111 ± 3.9%,107 ± 4.3%,101 ± 2.5%,92.9 ± 1.1%,60.4 ± 1.5%,41.5 ± 2%,99.71 ± 0.95%,102 ± 2.3%,100.7 ± 0.72%,92.7 ± 2.6%,78.2 ± 2.2%,64.1 ± 0.7%,1.01,1.13,1.04,1.07,0.927,0.488,0.0802,0.0481,0.00102,1.1,1.02,1.13,1.06,1.19,1.11,0.216,0.00279,0.00183
Cn1cncc1[C@@](N)(c1ccc(Cl)cc1)c1ccc2c(c1)c(-c1cccc(Cl)c1)cc(=O)n2C [Tipifarnib],99.6 ± 4.2%,117 ± 2.7%,93.9 ± 2.1%,89.4 ± 1.5%,76.4 ± 2.5%,63.3 ± 1.7%,95.09 ± 0.41%,96 ± 1.6%,98.8 ± 1.9%,81.5 ± 3.5%,75.86 ± 0.6%,64.3 ± 0.85%,0.693,0.533,0.634,0.552,0.512,0.592,0.436,0.274,0.0644,0.938,0.909,0.836,0.961,0.974,0.798,0.525,0.25,0.0103
CCOc1ccn(-c2ccc(F)cc2)c(=O)c1C(=O)Nc1ccc(Oc2ccnc(N)c2Cl)c(F)c1,106 ± 3.3%,101.7 ± 0.87%,103 ± 2.8%,104.97 ± 0.1%,100 ± 1.6%,97.17 ± 0.96%,88.1 ± 3.7%,93.98 ± 0.29%,98.93 ± 0.32%,99.4 ± 1.1%,97.6 ± 3.9%,90.8 ± 4.7%,1.04,0.924,0.972,0.852,0.854,0.991,0.877,0.756,0.0351,0.977,1.06,0.983,1.01,0.867,1.03,1.02,0.984,0.0304
CCc1cccc(CC)c1NC(=O)N1Cc2[nH]nc(NC(=O)c3ccc(N4CCN(C)CC4)cc3)c2C1,100 ± 7.8%,86.5 ± 5.1%,101 ± 3.2%,91.7 ± 2.3%,60.9 ± 2%,30.4 ± 1.4%,103 ± 1.6%,101.9 ± 0.41%,104.5 ± 0.47%,103 ± 1.4%,64.8 ± 1.1%,17.8 ± 0.74%,1.02,0.947,1.01,0.767,0.524,0.292,0.0956,0.0612,0.00895,0.986,1.13,1.17,0.98,0.853,0.0445,0.00761,0.00148,0.000776
CCC[C@H](NC(=O)/C(C#N)=C/c1cccc(Br)n1)c1ccccc1 [WP1130],104 ± 6%,98.3 ± 8.2%,99 ± 1.9%,100 ± 3.1%,42.6 ± 3.9%,12.9 ± 0.62%,99.84 ± 0.79%,111 ± 2.8%,109 ± 2.5%,105 ± 1.6%,65.6 ± 11%,11.4 ± 1.6%,1.37,1.16,1.59,1.27,1.4,1.62,1.11,0.0118,0.0115,1.14,0.962,1.13,1.04,1.02,1.14,0.0225,0.00218,0.00472
Nc1nc(Cl)nc2c1ncn2[C@@H]1O[C@H](CO)[C@@H](O)[C@@H]1F [Clofarabine],114 ± 4.2%,104.4 ± 0.4%,103 ± 2.5%,96.69 ± 0.62%,49.3 ± 1.3%,51.8 ± 2.4%,107 ± 2.7%,101.98 ± 0.033%,102.7 ± 0.28%,91.6 ± 3.6%,47.38 ± 0.098%,46.8 ± 2.5%,1.11,0.982,1.02,0.905,0.929,0.0836,0.0188,0.0106,0.00741,1.06,0.989,1.02,1.05,1.05,0.404,0.00754,0.00286,0.00163
Nc1ncn([C@H]2C[C@H](O)[C@@H](CO)O2)c(=O)n1 [Decitabine],104 ± 11%,94.3 ± 5.7%,98.29 ± 0.53%,98.5 ± 1.5%,80.2 ± 4.8%,93.1 ± 7.1%,112 ± 7.6%,102.5 ± 0.51%,95.65 ± 0.75%,95.7 ± 3.1%,85.5 ± 6.7%,83.8 ± 3.4%,1,0.906,1,0.888,0.803,0.544,0.312,0.104,0.0392,1.08,1.04,0.99,0.967,1.08,0.973,0.635,0.277,0.155
Cc1ccc(C(=O)Nc2cccc(C(F)(F)F)c2)cc1Nc1nc(-c2cccnc2)nc2c1cnn2C [NVP-BHG712],108 ± 1.1%,108 ± 0.36%,107 ± 2.5%,102 ± 2.6%,99.4 ± 2%,33.9 ± 4%,105 ± 1.7%,104.74 ± 0.059%,102 ± 1.1%,95.4 ± 2.5%,78.2 ± 1.3%,17.4 ± 1.2%,1.3,1.15,1.19,1.1,1.24,1.37,0.67,0.135,0.011,1.21,1.1,1.09,1.12,1.12,1.14,0.95,0.301,0.0076
